Laboratory results published in patent publication US12157749B2, “Borate-based drug and use thereof” (Chengdu Origin Biotechnology Limited Company, priority 2018, dated 2024).

What was measured:
Type in all cases: cell-based
[1] = system: human multiple myeloma cells KMS-11; test: Activity test on human multiple myeloma cells KMS-11 (CCK-8, GI50); settings: KMS-11 cells, 48 h incubation
Method: Cells KMS-11 (human multiple myeloma cells from JCRB ((Japanese Collection of Research Bioresources Cell Bank), AJCRB1179) were cultured to logarithmic growth phase in RPMI 1640 medium containing 10% fetal bovine serum at 37° C. and 5% CO2. The cells were inoculated into a 96-well culture plate in proper quantity per well. After being cultured at 37° C. and 5% CO2 for 24 h, solvent control DMSO or test compounds dissolved in DMSO were added to the cells, wherein the starting concentration of the test compound was 0.3 μM, and diluted 3-fold each time for a total of 6 times to obtain 6 concentration gradients. The cells were incubated with the test compounds at 37° C. and 5% CO2 for 48 h. CCK-8 reagent was added to each well and the cells were incubated at 37° C. for 2 h according to the reagent instructions, and the optical density value of each well was read with spectrophotometer at 450 nm wavelength.
The optical density value of the cell was set as Tz value when the drug had null action on the cell, which represented the cell value when the drug was added. The optical density value of the cells was set as C value after the cells were acted by solvent control DMSO for 48 h; and the optical density value of the cell was set as Ti value after the cells were acted by the test compounds for 48 h. According to the method proposed by NIH—NCI in the United States, the cell response to drugs was calculated as follows: [(Ti−Tz)/(C−Tz)]×100 when Ti≥Tz; [(Ti−Tz)/Tz]×100 when Ti<Tz. According to the above calculation, the GI50 value (the concentration of the test compound as required when the cell growth inhibition rate was […]) was calculated by using the 4-parameter logistic model in XLfit software.

[2] = system: human multiple myeloma cells RPMI-8226; test: Activity test on human multiple myeloma cells RPMI-8226 (CCK-8, GI50); settings: RPMI 8226 cells, 48 h incubation
Method: (§1) Cells RPMI-8226 (human multiple myeloma cells from ATCC (American type culture collection), ATCC CCL-155) and cells MM.1S (human multiple myeloma cells from ATCC (American type culture collection), ATCC CRL-2974) were cultured to logarithmic growth phase in RPMI 1640 medium containing 10% fetal bovine serum at 37° C. and 5% CO2. The cells were inoculated into 96-well culture plates in proper quantity per well. After culturing at 37° C. and 5% CO2 for 24 h, solvent control DMSO or test compounds dissolved in DMSO were added to the wells, wherein the starting concentration of the test compounds were […], and diluted 3-fold each time for a total of 6 times to obtain 6 concentration gradients. The cells were incubated together with the test compounds at 37° C. and 5% CO2 for 48 h. CCK-8 reagent was added to each well and the cells were incubated at 37° C. for 2 h according to the reagent instructions, and the optical density value of each well was read with spectrophotometer at 450 nm wavelength.
(§2) The optical density value of the cells was set as Tz value when the drugs had null action on the cell, which represented the cell value when the drugs were added. The optical density values of the cells were set as C value after the cells were acted by solvent control DMSO for 48 h; and the optical density values of the cell were set as Ti value after the cells were acted by the test compounds for 48 h. According to the method proposed by NIH—NCI in the United States, the cells' response to drugs was calculated as follows: [(Ti−Tz)/(C−Tz)]×100 when Ti≥Tz; [(Ti−Tz)/Tz]×100 when Ti<Tz. According to the above calculation, the GI50 value (the concentration of the test compound required when the cell growth inhibition rate was 50%) was calculated by using the 4-parameter logistic model in XLfit software.

[3] = system: human multiple myeloma cells MM.1S; test: Activity test on human multiple myeloma cells MM.1S (CCK-8, GI50); settings: MM1.S, MM.1S cells, 48 h incubation
Method: as §1, §2

GI50 [1] [nM] | GI50 [2] [µM] | GI50 [3] [µM] | SMILES
87.8 |  |  | CC(C)C[C@H](NC(=O)CNC(=O)c1cc(F)ccc1F)B1OC(=O)C(CC(=O)O)(CC(=O)O)O1
 | 0.012 | 0.0112 | CC(C)C[C@H](NC(=O)CNC(=O)c1cc(Br)ccc1F)B1OC(=O)C(CC(=O)O)(CC(=O)O)O1 [drawing 61]
 | 0.0134 | 0.012 | CC(C)C[C@H](NC(=O)CNC(=O)c1cc(F)ccc1Br)B1OC(=O)C(CC(=O)O)(CC(=O)O)O1 [drawing 64]
39.7 |  |  | CC(C)C[C@H](NC(=O)CNC(=O)c1cc(Br)ccc1F)B1OC(=O)C(CC(=O)O)(CC(=O)O)O1 [drawing 66]
35.7 |  |  | CC(C)C[C@H](NC(=O)CNC(=O)c1cc(F)ccc1Br)B1OC(=O)C(CC(=O)O)(CC(=O)O)O1 [drawing 70]
59 |  |  | CC(C)C[C@H](NC(=O)CNC(=O)c1cc(Cl)ccc1F)B1OC(=O)C(CC(=O)O)(CC(=O)O)O1 [drawing 71]

The next lines start with the compound.

SMILES | GI50 [1] [nM] | GI50 [2] [µM] | GI50 [3] [µM]
CC(C)C[C@H](NC(=O)CNC(=O)c1cc(Br)ccc1F)B(O)O | 35.7 |  | 
CC(C)C[C@H](NC(=O)CNC(=O)c1cc(Br)ccc1F)B1OC(=O)c2ccccc2O1 | 34.1 |  | 
Cc1ccc(F)c(C(=O)NCC(=O)N[C@@H](CC(C)C)B2OC(=O)C(CC(=O)O)(CC(=O)O)O2)c1 | 90.5 |  | 
CC(C)C[C@H](NC(=O)CNC(=O)c1cc(Br)ccc1Cl)B1OC(=O)C(CC(=O)O)(CC(=O)O)O1 [drawing 60] |  | 0.0107 | 0.0133
CC(C)C[C@H](NC(=O)CNC(=O)c1cc(C(F)(F)F)ccc1F)B1OC(=O)C(CC(=O)O)(CC(=O)O)O1 [drawing 62] |  | 0.0182 | 0.026
CC(C)C[C@H](NC(=O)CNC(=O)c1cc(Cl)ccc1Cl)B1OC(=O)C(CC(=O)O)(CC(=O)O)O1 [drawing 63] |  | 0.0122 | 0.0128
CC(C)C[C@H](NC(=O)CNC(=O)c1cc(C(F)(F)F)ccc1F)B1OC(=O)C(CC(=O)O)(CC(=O)O)O1 [drawing 67] | 57.8 |  | 
CC(C)C[C@H](NC(=O)CNC(=O)c1cc(Br)ccc1F)B1OC(=O)C(c2ccccc2)O1 (stereo partly shown) [drawing 69] | 29.9 |  | 
